# Results taken from US20220289753A1, “SHP2 INHIBITORS” (IRBM S.P.A., priority 2019, published 2022).
# Where two headings read alike, the source gives them in different places.
# Tests used:
# [1] = tested on: ERK phosphorylation in KYSE-520 cells; experiment: Phospho-ERK cellular assay (Advanced phospho-ERK1/2 (Thr202/Tyr204) TR-FRET kit); type: cell-based; details: Homo sapiens, KYSE-520, 2 h, read-out: pERK IC50
# Outline: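 IC50 values are inflection points of four-parameter logistic fits of percent activity against compound dilution. Compound exposure lasted 2 h at 37° C in KYSE-520 cells. Lysates were probed overnight with Eu-cryptate/d2 antibodies to ERK1/2 phosphorylated at Thr202/Tyr204, so reduced TR-FRET indicates SHP2 inhibition.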
# [2] = biological target: T1, SHP-2 enzyme (Met1-Leu525) (Homo sapiens, UniProt Q06124); experiment: SHP2 inhibition enzymatic assay (DiFMUP substrate, IRS1 peptide activation); type: biochemical; details: SHP2 wt; activated by 500 nM IRS1 peptide; 75 μM DiFMUP substrate
# T1 construct: synthetized by Origene, Met1-Leu525, cat #TP750155; purchased Origene TP750155
# T1 sequence (Q06124 1-525): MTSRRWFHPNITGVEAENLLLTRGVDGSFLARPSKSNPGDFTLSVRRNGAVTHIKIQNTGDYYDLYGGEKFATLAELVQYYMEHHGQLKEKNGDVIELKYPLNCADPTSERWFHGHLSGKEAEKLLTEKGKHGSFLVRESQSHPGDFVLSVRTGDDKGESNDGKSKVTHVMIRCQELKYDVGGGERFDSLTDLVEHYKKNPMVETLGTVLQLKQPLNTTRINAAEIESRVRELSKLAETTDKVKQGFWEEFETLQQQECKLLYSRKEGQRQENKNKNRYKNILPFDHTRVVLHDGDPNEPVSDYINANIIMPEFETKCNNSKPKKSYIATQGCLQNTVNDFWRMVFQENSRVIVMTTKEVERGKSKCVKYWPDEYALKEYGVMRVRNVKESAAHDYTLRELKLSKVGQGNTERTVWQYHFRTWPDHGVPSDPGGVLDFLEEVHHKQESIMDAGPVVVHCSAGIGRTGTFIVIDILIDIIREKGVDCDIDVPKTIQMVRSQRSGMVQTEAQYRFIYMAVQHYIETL
# Outline: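 SHP-2 (Met1-Leu525, 0.5 nM final) preincubated 30 min with compounds and IRS1 activating peptide in HEPES pH 7.2 buffer with NaCl, KCl, EDTA, tween-20, 5 mM DTT. DiFMUP then added for 30 min at room temperature and fluorescence read. IC50 from four-parameter logistic fit of % inhibition.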
# [3] = KYSE-520 cells, 2 h at 37° C., TR-FRET
Compound,"IC50 [1, 3] [nM]",IC50 [2] [nM],IC50 [1] [nM]
"COc1nccc(Sc2cnc3[nH]c(N4CCC5(CC4)Cc4ncccc4[C@H]5N)nc3n2)c1Cl [Example 151, (S)-1′-(5-((3-chloro-2-methoxypyridin-4-yl)thio)-1H-imidazo[4,5-b]pyrazin-2-yl)-5,7-dihydrospiro[cyclopenta[b]pyridine-6,4′-piperidin]-5-amine]",> 5000,< 500,
"N[C@@H]1c2ccccc2CC12CCN(c1nc3nc(Sc4ccnc(O)c4Cl)cnc3[nH]1)CC2 [Example 152, (S)-4-((2-(1-amino-1,3-dihydrospiro[indene-2,4′-piperidin]-1′-yl)-1H-imidazo[4,5-b]pyrazin-5-yl)thio)-3-chloropyridin-2-ol]",,< 500,> 5000
"N[C@@H]1c2cccnc2CC12CCN(c1nc3nc(Sc4ccnc(OC5COC5)c4Cl)cnc3[nH]1)CC2 [Example 153, (S)-1′-(5-((3-chloro-2-(oxetan-3-yloxy)pyridin-4-yl)thio)-1H-imidazo[4,5-b]pyrazin-2-yl)-5,7-dihydrospiro[cyclopenta[b]pyridine-6,4′-piperidin]-5-amine]",> 5000,500 to 3000,
"CN(C)c1nccc(Sc2cnc3[nH]c(N4CCC5(CC4)Cc4ncccc4[C@H]5N)nc3n2)c1Cl [Example 154, (S)-1′-(5-((3-chloro-2-(dimethylamino)pyridin-4-yl)thio)-1H-imidazo[4,5-b]pyrazin-2-yl)-5,7-dihydrospiro[cyclopenta[b]pyridine-6,4′-piperidin]-5-amine]",> 5000,< 500,
"N[C@@H]1c2ccccc2OC12CCN(c1nc3nc(Sc4ccncc4Cl)cnc3[nH]1)CC2 [Example 155, (R)-1′-(5-((3-chloropyridin-4-yl)thio)-1H-imidazo[4,5-b]pyrazin-2-yl)-3H-spiro[benzofuran-2,4′-piperidin]-3-amine]",1000 to 5000,< 500,
"N[C@@H]1c2ccccc2CC12CCN(c1nc3nc(Sc4cncnc4C(F)(F)F)cnc3[nH]1)CC2 [Example 156, (S)-1′-(5-((4-(trifluoromethyl)pyrimidin-5-yl)thio)-1H-imidazo[4,5-b]pyrazin-2-yl)-1,3-dihydrospiro[indene-2,4′-piperidin]-1-amine]",> 5000,< 500,
N[C@@H]1c2ccccc2CC12CCN(c1nc3nc(Sc4cccc5c4OCC(=O)N5)cnc3[nH]1)CC2 [Example 157],> 5000,< 500,
"N[C@@H]1c2ccccc2CC12CCN(c1nc3nc(Sc4nccnc4Cl)cnc3[nH]1)CC2 [Example 158, (S)-1′-(5-((3-chloropyrazin-2-yl)thio)-1H-imidazo[4,5-b]pyrazin-2-yl)-1,3-dihydrospiro[indene-2,4′-piperidin]-1-amine]",< 1000,< 500,
"N[C@@H]1c2ccccc2CC12CCN(c1nc3nc(Sc4ccnc(NC5CC5)c4Cl)cnc3[nH]1)CC2 [Example 160, (S)-1′-(5-((3-chloro-2-(cyclopropylamino)pyridin-4-yl)thio)-1H-imidazo[4,5-b]pyrazin-2-yl)-1,3-dihydrospiro[indene-2,4′-piperidin]-1-amine]",< 1000,< 500,
"N[C@@H]1c2cccnc2CC12CCN(c1nc3ncc(Sc4ccnc(NC5CC5)c4Cl)nc3[nH]1)CC2 [Example 161, (S)-1′-(6-((3-chloro-2-(cyclopropylamino)pyridin-4-yl)thio)-1H-imidazo[4,5-b]pyrazin-2-yl)-5,7-dihydrospiro[cyclopenta[b]pyridine-6,4′-piperidin]-5-amine]",1000 to 5000,< 500,
"N[C@@H]1c2ccccc2CC12CCN(c1nc3nc(Sc4cccc5c4C(F)(F)C(=O)N5)cnc3[nH]1)CC2 [Example 162, (S)-4-((2-(1-amino-1,3-dihydrospiro[indene-2,4′-piperidin]-1′-yl)-1H-imidazo[4,5-b]pyrazin-5-yl)thio)-3,3-difluoroindolin-2-one]",< 1000,< 500,
